{
  "source": "patent US20050112573A1",
  "about": "“Method of detecting toxic substance” (priority 2001, published 2005)",
  "tested_on": "yeast genes (level of expressed mRNA)",
  "assay": "DNA chip analysis of expressed mRNA of yeast genes after 2 h culture with a toxic chemical substance",
  "assay_type": "cell-based, Saccharomyces cerevisiae S288C",
  "in_short": "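S. cerevisiae S288C grown at 25° C in YPD; toxicant added at log phase at growth-inhibitory, non-lethal levels for 2 h, untreated cells as control. Poly(A) mRNA reverse-transcribed with Cy3/Cy5-dUTP, hybridized to whole-genome chip at 65° C >12 h; value is fluorescence ratio versus untreated.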",
  "data": [
    {"compound": "C[S+](C)[O-]", "note": "[(15), dimethylsulfoxide]", "values": [
      {"measurement": "The level of expressed mRNA in the presence of chemical substance/absence: YGR293C", "setting": "gene YGR293C", "value": 0.7},
      {"measurement": "The level of expressed mRNA in the presence of chemical substance/absence: YHL006C", "setting": "gene YHL006C", "value": 0.6},
      {"measurement": "The level of expressed mRNA in the presence of chemical substance/absence: YHL021C", "setting": "gene YHL021C", "value": 1.2},
      {"measurement": "The level of expressed mRNA in the presence of chemical substance/absence: YHL037C", "setting": "gene YHL037C", "value": 0.8},
      {"measurement": "level of expressed mRNA in the presence of chemical substance/in its absence", "setting": "gene YHR037W", "value": 1.1},
      {"measurement": "The level of expressed mRNA in the presence of chemical substance/absence: YHR083W", "setting": "gene YHR083W", "value": 1.3},
      {"measurement": "level of expressed mRNA in the presence of chemical substance/in its absence", "setting": "gene YHR092C", "value": 0.2},
      {"measurement": "The level of expressed mRNA in the presence of chemical substance/absence: YHR095W", "setting": "gene YHR095W", "value": 0.8},
      {"measurement": "The level of expressed mRNA in the presence of chemical substance/absence: YHR105W", "setting": "gene YHR105W", "value": 0.9},
      {"measurement": "The level of expressed mRNA in the presence of chemical substance/absence: YHR134W", "setting": "gene YHR134W", "value": 1.0},
      {"measurement": "level of expressed mRNA in the presence of chemical substance/in its absence", "setting": "gene YHR137W", "value": 2.8},
      {"measurement": "The level of expressed mRNA in the presence of chemical substance/absence: YHR180W", "setting": "gene YHR180W", "value": 0.8},
      {"measurement": "The level of expressed mRNA in the presence of chemical substance/absence: YHR181W", "setting": "gene YHR181W", "value": 1.4},
      {"measurement": "level of expressed mRNA in the presence of chemical substance/in its absence", "setting": "gene YHR190W", "value": 1.3},
      {"measurement": "level of expressed mRNA in the presence of chemical substance/in its absence", "setting": "gene YIL033C", "value": 1.0},
      {"measurement": "The level of expressed mRNA in the presence of chemical substance/absence: YIL108W", "setting": "gene YIL108W", "value": 1.8},
      {"measurement": "The level of expressed mRNA in the presence of chemical substance/absence: YIL127C", "setting": "gene YIL127C", "value": 0.7},
      {"measurement": "level of expressed mRNA in the presence of chemical substance/in its absence", "setting": "gene YIL154C", "value": 4.3},
      {"measurement": "The level of expressed mRNA in the presence of chemical substance/absence: YIL165C", "setting": "gene YIL165C", "value": 0.8},
      {"measurement": "level of expressed mRNA in the presence of chemical substance/in its absence", "setting": "gene YIL167W", "value": 0.6},
      {"measurement": "level of expressed mRNA in the presence of chemical substance/in its absence", "setting": "gene YIR035C", "value": 1.4},
      {"measurement": "The level of expressed mRNA in the presence of chemical substance/absence: YJL017W", "setting": "gene YJL017W", "value": 1.1},
      {"measurement": "The level of expressed mRNA in the presence of chemical substance/absence: YJL032W", "setting": "gene YJL032W", "value": 1.0},
      {"measurement": "The level of expressed mRNA in the presence of chemical substance/absence: YJL037W", "setting": "gene YJL037W", "value": 1.6},
      {"measurement": "The level of expressed mRNA in the presence of chemical substance/absence: YJL049W", "setting": "gene YJL049W", "value": 0.8},
      {"measurement": "level of expressed mRNA in the presence of chemical substance/in its absence", "setting": "gene YJL088W", "value": 5.7},
      {"measurement": "The level of expressed mRNA in the presence of chemical substance/absence: YJL097W", "setting": "gene YJL097W", "value": 1.1},
      {"measurement": "level of expressed mRNA in the presence of chemical substance/in its absence", "setting": "gene YJL132W", "value": 1.1},
      {"measurement": "level of expressed mRNA in the presence of chemical substance/in its absence", "setting": "gene YJL196C", "value": 0.6},
      {"measurement": "The level of expressed mRNA in the presence of chemical substance/absence: YJR030C", "setting": "gene YJR030C", "value": 0.8},
      {"measurement": "The level of expressed mRNA in the presence of chemical substance/absence: YJR044C", "setting": "gene YJR044C", "value": 1.6},
      {"measurement": "level of expressed mRNA in the presence of chemical substance/in its absence", "setting": "gene YJR142W", "value": 0.6},
      {"measurement": "level of expressed mRNA in the presence of chemical substance/in its absence", "setting": "gene YJR148W", "value": 3.2},
      {"measurement": "level of expressed mRNA in the presence of chemical substance/in its absence", "setting": "gene YJR159W", "value": 2.3},
      {"measurement": "The level of expressed mRNA in the presence of chemical substance/absence: YKL051W", "setting": "gene YKL051W", "value": 1.5},
      {"measurement": "The level of expressed mRNA in the presence of chemical substance/absence: YKL059C", "setting": "gene YKL059C", "value": 1.1},
      {"measurement": "level of expressed mRNA in the presence of chemical substance/in its absence", "setting": "gene YKL067W", "value": 1.1},
      {"measurement": "The level of expressed mRNA in the presence of chemical substance/absence: YKL090W", "setting": "gene YKL090W", "value": 0.8},
      {"measurement": "The level of expressed mRNA in the presence of chemical substance/absence: YKL094W", "setting": "gene YKL094W", "value": 1.0},
      {"measurement": "The level of expressed mRNA in the presence of chemical substance/absence: YKL097C", "setting": "gene YKL097C", "value": 0.8},
      {"measurement": "The level of expressed mRNA in the presence of chemical substance/absence: YKL100C", "setting": "gene YKL100C", "value": 1.7},
      {"measurement": "level of expressed mRNA in the presence of chemical substance/in its absence", "setting": "gene YKR039W", "value": 1.7},
      {"measurement": "The level of expressed mRNA in the presence of chemical substance/absence: YKR040C", "setting": "gene YKR040C", "value": 1.1},
      {"measurement": "The level of expressed mRNA in the presence of chemical substance/absence: YLR097C", "setting": "gene YLR097C", "value": 0.9},
      {"measurement": "level of expressed mRNA in the presence of chemical substance/in its absence", "setting": "gene YLR142W", "value": 1.6},
      {"measurement": "level of expressed mRNA in the presence of chemical substance/in its absence", "setting": "gene YLR180W", "value": 2.5},
      {"measurement": "The level of expressed mRNA in the presence of chemical substance/absence: YLR226W", "setting": "gene YLR226W", "value": 1.3},
      {"measurement": "level of expressed mRNA in the presence of chemical substance/in its absence", "setting": "gene YLR273C", "value": 2.6},
      {"measurement": "level of expressed mRNA in the presence of chemical substance/in its absence", "setting": "gene YLR300W", "value": 2.7},
      {"measurement": "level of expressed mRNA in the presence of chemical substance/in its absence", "setting": "gene YLR307W", "value": 3.9},
      {"measurement": "The level of expressed mRNA in the presence of chemical substance/absence: YLR338W", "setting": "gene YLR338W", "value": 1.5},
      {"measurement": "The level of expressed mRNA in the presence of chemical substance/absence: YLR339C", "setting": "gene YLR339C", "value": 1.0},
      {"measurement": "The level of expressed mRNA in the presence of chemical substance/absence: YLR392C", "setting": "gene YLR392C", "value": 0.5},
      {"measurement": "The level of expressed mRNA in the presence of chemical substance/absence: YLR415C", "setting": "gene YLR415C", "value": 1.0},
      {"measurement": "The level of expressed mRNA in the presence of chemical substance/absence: YLR427W", "setting": "gene YLR427W", "value": 0.8},
      {"measurement": "The level of expressed mRNA in the presence of chemical substance/absence: YML013W", "setting": "gene YML013W", "value": 2.2},
      {"measurement": "The level of expressed mRNA in the presence of chemical substance/absence: YML029W", "setting": "gene YML029W", "value": 0.8}
    ]}
  ]
}
